Tested on: E. multilocularis metacestodes
Test: PGI assay: phosphoglucose isomerase release from damaged metacestodes
Type: cell-based, Echinococcus multilocularis
Conditions: 10 μM, 5 days, single wells, relative to DB1127 (10 μM)
Protocol: The preparation of E. multilocularis metacestode material (strain H95) from intraperitoneally (i.p.) infected BALB/c mice was performed as described earlier. Metacestode vesicles were used for in vitro drug screening when they reached 2 to 4 mm in diameter.
For screening of the Malaria Box against E. multilocularis metacestodes, the PGI screening assay was applied that measures the release of the enzyme phosphoglucose isomerase (PGI) upon physical impairment of metacestodes. The screening setup was done in 24 well plates as described by Stadelmann et al. For initial screening, each drug was applied at 10 μM to metacestodes in single wells. As a positive control-drug, the dicationic diguanidino compound DB1127 (10 μM) was used and 0.1% DMSO was added as negative control. Metacestodes were cultured in the presence of the compounds for 5 days, after which PGI release was quantified exactly as stated in Stadelmann et al. […] Averages, standard deviations and EC50 values were calculated in Microsoft Excel 2010.

SMILES	PGI (% of DB1127 at 10 uM) [%]
COc1ccccc1NC1=C(N2CCCCC2)C(=O)c2ccccc2C1=O [MMV085203]	31.65
Cc1cc(NC(=O)c2cccc(C(F)(F)F)c2)n(-c2nc(-c3ccc4c(c3)OCO4)cs2)n1 [MMV396681]	-33.55
CN(C)CCCNCc1ccc(-c2ccc(F)c(Cl)c2)o1.Cl [MMV020505]	-8.77
COc1ccc(C2N(C)c3ccccc3N2C)cc1 [MMV666075]	0.50
CC(C)(C)c1ccc(C(=O)Nc2c3c(nn2-c2cccc(Cl)c2)CSC3)cc1 [MMV666123]	-7.56
COc1ccc(CCNC(=O)c2cc(S(=O)(=O)N3CC(C)CC(C)C3)ccc2Sc2ccc(F)cc2)cc1OC (centres unmarked) [MMV007557]	14.98
CCOc1c(Br)cc(C2C(C(=O)OC)=CN(C)C=C2C(=O)OC)cc1OC [MMV006764]	-0.44
O=c1nc(C=Cc2ccc(Br)cc2)oc2ccccc12 [MMV666599]	22.37
O=C(Nc1ccc(CN2CCOCC2)cc1)c1ccc(-c2ccc(Br)cc2)o1 [MMV665901]	-20.18
c1ccc(-c2ccc(-c3nc4ccccc4[nH]3)cc2)cc1 [MMV665891]	-89.45
CCC(O)c1ccc(Br)cc1NC(=O)c1cccc(Cl)c1 (centres unmarked) [MMV020654]	-1.89
CC(C)(C)c1ccc(C(=O)Nc2nc3ccccc3s2)cc1 [MMV142383]	-17.15
COc1ccc2nc(N)nc(C)c2c1 [MMV665897]	-26.21
CC(C)CNC(=O)c1c(N)n(CCc2ccccc2F)c2nc3ccccc3nc12 [MMV396744]	-10.23
COc1cc(OC)cc(N2C(=O)N(Cc3ccc(C(C)(C)C)cc3)c3ccccc3S2(=O)=O)c1 [MMV008173]	-29.78
O=C(Nc1nc(-c2ccccn2)cs1)c1ccccc1Br [MMV665909]	-125.86
O=C(NC1CCN(Cc2ccccc2)CC1)c1cc2nc(-c3ccc(Cl)s3)cc(C(F)(F)F)n2n1 [MMV396635]	-11.44
O=C(CCc1ccco1)NC1CCN(CC2(c3ccc(Cl)cc3)CCC2)CC1 [MMV666108]	-18.89
Cc1cc(C=C2SC(=Nc3ccccc3)N(C3CCCC3)C2=O)c(C)n1-c1ccc(Cl)cc1 [MMV666688]	-35.93
CCOc1ccc2nc(C)cc(Nc3ccc(N(C)C)cc3)c2c1.Cl [MMV007020]	-3.98
Cc1ccc(Cn2c(N3CCC(C(=O)NCc4cccs4)CC3)nc3ccccc32)cc1 [MMV007564]	-118.82
Cc1cc(=O)oc2c1ccc1oc(C(=O)c3ccccc3)c(C)c12 [MMV006753]	-7.57
COc1ccc(NC(=O)C2c3ccccc3C(=O)N(CC(C)C)C2c2cccs2)cc1 (centres unmarked) [MMV000662]	-25.19
c1ccc(/C2=N/c3ccccc3/N=C(/c3ccccc3)c3ccccc32)cc1 [MMV007113]	13.66
COc1cc(C(=O)Nc2ccc(-c3nc4ccccc4[nH]3)cc2)cc(OC)c1OC [MMV665898]	-11.03
CCCCN(CCCC)S(=O)(=O)c1ccc(NC(=O)c2ccco2)cc1 [MMV007881]	-23.46

SMILES	PGI (% of DB1127 at 10 uM) [%]
O=C1c2ccc3c4c(ccc(c24)C(=O)N1CCCCO)C(=O)N(CCCCO)C3=O [MMV009085]	-6.63
Cc1cc(N(C)C)nc(Nc2ccc(NC(=O)Nc3ccccc3)cc2)n1 [MMV020243]	0.64
N=c1c2ccccc2nnn1-c1cccc(C(F)(F)F)c1 [MMV665923]	18.29
CC1CCN(Cc2ccc(NC(=O)c3cc4ccc5cccnc5c4[nH]3)cc2)CC1 [MMV020549]	-59.67
CCCCc1c(C)nc2c(OC)cccc2c1O [MMV006820]	1.39
COc1ccc(C2C(C(=O)Nc3cccc(OC)c3)c3ccccc3C(=O)N2C2CCCCC2)cc1 (centres unmarked) [MMV008455]	-12.94
CN1CCN(c2c3c(c(C#N)c4nc5ccccc5n24)CCC3)CC1 [MMV008127]	-35.30
CCOc1ccc(Nc2ccnc3cc(Cl)ccc23)cc1 [MMV007285]	-9.06
O=C(NC(c1ccccc1)c1ccc2cccnc2c1O)c1ccccc1 (centres unmarked) [MMV666080]	-67.16
OC1CCCCC1C1(NC(=S)Nc2ccccc2)CCCCC1 (centres unmarked) [MMV665980]	-9.51
CCCCc1c(CCC)c(=N)c2ccccc2n1C.I [MMV007764]	29.51
O=C(NCC1Cc2cccc(-c3ccncc3)c2O1)c1csc2c1CCCC2 (centres unmarked) [MMV665954]	-10.62
CCOc1cc(Br)c(C(C)NC(=O)c2cccc(OC)c2)cc1OCC (centres unmarked) [MMV665796]	-1.06
COc1ccccc1C(=O)ON=C(N)Cc1cccc2ccccc12 [MMV666686]	1.82
CCOC(=O)c1ccc2[nH]c(-c3ccccc3)cc(=O)c2c1 [MMV006457]	4.84
COc1ccc(C(=O)NC(c2ccc(Cl)cc2Cl)c2cc(Cl)c3cccnc3c2O)cc1 (centres unmarked) [MMV666054]	1.08
CCOC(=O)C1=CN(C)C=C(C(=O)OCC)C1c1cc(Br)c(OCC)c(OC)c1 [MMV006656]	16.40
COc1ccc(-c2nonc2NC(=O)c2cccc(C)c2)cc1OC [MMV665890]	-8.07
CC(=O)Nc1nnc(SCc2c(C)cc(C(C)(C)C)cc2C)s1 [MMV020700]	1.07
O=C(NCCCN1CCC(N2CCCCC2)CC1)C1=Cc2cc(Br)ccc2OC1 [MMV019995]	11.48
CC(Oc1ccc(NC(=O)c2cccs2)cc1)C(=O)c1ccc(Cl)cc1 (centres unmarked) [MMV665886]	2.30
Cc1ccc(S(=O)(=O)c2c(COC(=O)c3cccc(C)c3)c(-c3ccccc3)nn2C)cc1 [MMV665936]	-18.54
O=C(NC1CCN(Cc2ccccc2)CC1)c1cc(-c2ccncc2)nc2ccc(Cl)cc12 [MMV020275]	-18.74
C=CCc1c(C)nc2ccccc2c1O [MMV006913]	-48.01
COc1ccc(CNC(=O)c2cc3c(=O)n4ccccc4nc3n(CCc3ccccc3)c2=N)cc1 [MMV665881]	6.76
O=C(Nc1ccc(N2CCN(Cc3ccccc3)CC2)cc1)c1cccs1.O=C(O)C(F)(F)F [MMV019670]	-9.43

SMILES	PGI (% of DB1127 at 10 uM) [%]
O=C(Nc1ccc(-c2nc3cc(NC(=O)c4ccc(Cl)cc4)ccc3[nH]2)cc1)c1ccc(Cl)cc1 [MMV006962]	-9.85
Cc1c(C)n(Cc2ccc(F)cc2)c2ccc(C(=O)NCc3ccco3)cc12 [MMV008149]	-33.19
O=[N+]([O-])c1ccc(C=NNc2nc3ccccc3[nH]2)cc1 [MMV666607]	-48.05
CCN1CCN(c2cc(C)c3cc(NC(=O)c4ccc(OC)c(OC)c4)ccc3n2)CC1 [MMV019074]	-7.35
O=C(Nc1ccc(Cl)cc1C(=O)Nc1ccncc1)c1ccc(Cl)cc1Cl [MMV666057]	-78.23
CCCCOc1ccc(C(=O)Nc2cc(C)on2)cc1 [MMV007906]	-15.33
CCN(CC)c1cc(C)c2cc(NC(=O)c3cccc(OC)c3)ccc2n1 [MMV000498]	4.05
CCOc1ccc(-n2cc(-c3ccccc3)c3c(SCc4cc(C)ccc4C)ncnc32)cc1 [MMV085471]	-19.26
CCOc1ccc(CCNC(=O)c2cccs2)cc1OCC [MMV007978]	-3.44
COc1ccc2c(c1)OC(O)(C(F)(F)C(F)(F)F)CC2=O (centres unmarked) [MMV007839]	50.23
Cc1cc(C)cc(Nc2cc(C)nc3nc(C(F)(F)F)nn23)c1 [MMV011259]	-21.18
COc1ccc2nc(C)cc(Nc3ccccc3O)c2c1 [MMV274073]	-1.78
CCc1ccc(Nc2cc(C)c3ccc(O)cc3n2)cc1.Cl [MMV000570]	-6.94
COc1ccc(CCN2C(=O)c3[nH]nc(-c4cc(Cl)c(C)cc4O)c3C2c2ccccc2F)cc1 (centres unmarked) [MMV396717]	-12.02
Cc1ccc(N2C(=O)C3C(C2=O)C2(c4ccccc4)C(=O)C3(c3ccccc3)C(c3ccccc3)=C2c2ccccc2)cc1 (centres unmarked) [MMV666062]	-37.70
COc1ccccc1N1CCN(C(CNS(=O)(=O)c2ccc(Cl)cc2)c2cccnc2)CC1 (centres unmarked) [MMV665914]	1.92
COc1ccc2nc(C)cc(Nc3cccc(O)c3)c2c1.Cl [MMV008212]	-12.96
Cc1sc2ncnc(Sc3nc4ccccc4[nH]3)c2c1C [MMV019266]	-32.46
Br.Cc1ccc(C)c(-c2csc(Nc3ccc(C)c(C)c3)n2)c1 [MMV007654]	3.26
COc1ccc(-c2nc(NC(=O)CS(=O)(=O)c3ccc(F)cc3)sc2C)cc1 [MMV665915]	-67.15
O=C(CCl)NCCOc1ccc(Cl)cc1Cl [MMV665927]	24.95
COc1cccc(C(=O)Nc2ccc(-c3nc4ccccc4[nH]3)cc2)c1 [MMV019762]	-25.80
CCCCc1ccc(NS(=O)(=O)c2cc3c4c(c2)CCN4C(=O)CC3)cc1 [MMV001255]	-110.46
Cc1cccc(-n2ncc3c(O)nc(-n4nc(C)cc4NC(=O)c4cc5ccccc5o4)nc32)c1 [MMV403679]	-25.18
Cl.c1ccc2c(NCCCCCCNc3c4c(nc5ccccc35)CCCC4)c3c(nc2c1)CCCC3 [MMV019555]	-3.16

— publication PMC4788259 (PLoS Neglected Tropical Diseases, 2016)
